Data as given in publication PMC6321124, “Hydrophilic Linear Peptide with Histidine and Lysine Residues as a Key Factor Affecting Antifungal Activity” (International Journal of Molecular Sciences, 2018).
Values after ≈ are worked out from the molar mass of the structure shown. Residues, ends and D or L forms follow the SMILES beside them.

How the values were obtained:
[1] = system: Aspergillus flavus (KCTC 6905); conditions: KCTC 6905, 48 h, pH 6
[2] = system: C. gloeosporioides (KCTC 6169); conditions: KCTC 6169, 48 h, pH 6
C. albicans (KCTC 7270) = conditions: KCTC 7270, 48 h, pH 6
[3] = system: C. albicans (CCARM 14001, fluconazole-resistant strain); conditions: CCARM 14001, 48 h, pH 6
[4] = system: C. albicans (CCARM 14004, fluconazole-resistant strain); conditions: CCARM 14004, 48 h, pH 6
[5] = system: C. albicans (CCARM 14007, amphotericin B-resistant strain); conditions: CCARM 14007, 48 h, pH 6
[6] = system: C. albicans (CCARM 14020, fluconazole-resistant strain); conditions: CCARM 14020, 48 h, pH 6
C. krusei (CCARM 14017) = conditions: CCARM 14017, 48 h, pH 6
[7] = system: C. parapsilosis (CCARM 14016); conditions: CCARM 14016, 48 h, pH 6
[8] = system: F. graminearum (KCTC 16656); conditions: KCTC 16656, 48 h, pH 6
[9] = system: F. moniliforme (KCTC 6149); conditions: KCTC 6149, 48 h, pH 6
[10] = system: F. oxysporum (KCTC 16909); conditions: KCTC 16909, 48 h, pH 6
F. solani (KCTC 6326) = conditions: KCTC 6326, 48 h, pH 6
[11] = system: Tricophyton rubrum (KCTC 6345); conditions: KCTC 6345, 48 h, pH 6
[12] = system: Trichoderma virens (KCTC 16924); conditions: KCTC 16924, 48 h, pH 6
[13] = system: Trichoderma viride (KCTC 16992); conditions: KCTC 16992, 48 h, pH 6
C. albicans cells [14] = assay: Intracellular ROS (DCFH-DA, flow cytometry); format: cell-based; conditions: peptides at MICs or 10 mM H2O2 for 6 h, DCFH-DA 20 min
Protocol: DCF fluorescence was measured using 5000 events/sample following excitation with a 488-nm wavelength laser and reading through a 525/40 biopass filter using a CytoFLEX flow cytometer.

HaCaT cells = assay: Cytotoxicity (MTT assay); format: cell-based; conditions: at 3.13 µM, 24 h
[15] = Calcein leakage, artificial mammalian model membrane; conditions: PC/Ch/SM (1:1:1) LUVs, 10 μM lipids
Protocol: The dried lipids were prehydrated with dye buffer solution (80 mM calcein, 10 mM MES, 50 mM NaCl, pH 6.2), vortexed for 1 min, and incubated for 30 min at 50 °C. The suspension was freeze-thawed in liquid nitrogen for nine cycles to generate large unilamellar vesicles (LUVs) and extruded 30 times through polycarbonate filters (two stacked 0.2-μm pore-size filters) using an Avanti Mini-Extruder (Avanti Polar Lipids Inc., Alabaster, AL, USA). Calcein-entrapped vesicles were separated from free calcein by gel filtration chromatography on a Sephadex G-50 column. Entrapped LUVs in suspensions containing 10 μM lipids were incubated with various concentrations of the peptide. The fluorescence of the released calcein was assessed with a microtiter SpectraMax M5 reader at an excitation wavelength of 480 nm and an emission wavelength of 520 nm. Complete (100%) release was achieved via the addition of Triton X-100 to a final concentration of 0.1% (v/v). The apparent percentage of calcein release was calculated in accordance with the following equation: Release (%) = 100 × (F − F0)/(Ft − F0) (2) where F and Ft represent the fluorescence intensity after the addition of the peptides and Triton X-100, respectively, and F0 represents the fluorescence of the intact vesicles.

[16] = system: drug-resistant C. albicans strains (CCARM 14001, 14004, 14007, and 14020); format: cell-based; conditions: at 256 µM; CCARM 14001, 14004, 14007, 14020; data not shown
C. albicans cells [17] = assay: SYTOX Green uptake (flow cytometry); format: cell-based; conditions: peptides at MICs for 30 min, 0.5 μM SYTOX Green pre-incubated 15 min
Protocol: C. albicans cells were pre-incubated with 0.5 μM SYTOX Green for 15 min in the dark, incubated with the indicated peptides at MICs for 30 min, and then analyzed using a CytoFLEX flow cytometer (Beckman Coulter Inc., Brea, CA, USA).

C. albicans = conditions: peptides at MICs for 6 h, measured at 550 nm

Question: With `NCCCC[C@H](NC(=O)[C@H](CCCCN)NC(=O)[C@H](Cc1c[nH]cn1)NC(=O)[C@H](CCCCN)NC(=O)[C@H](CCCCN)NC(=O)[C@H](Cc1c[nH]cn1)NC(=O)[C@H](CCCCN)NC(=O)[C@H](CCCCN)NC(=O)[C@H](Cc1c[nH]cn1)NC(=O)[C@H](CCCCN)NC(=O)[C@H](CCCCN)NC(=O)[C@H](Cc1c[nH]cn1)NC(=O)[C@H](CCCCN)NC(=O)[C@H](CCCCN)NC(=O)[C@H](Cc1c[nH]cn1)NC(=O)[C@H](CCCCN)NC(=O)[C@H](CCCCN)NC(=O)[C@H](Cc1c[nH]cn1)NC(=O)[C@H](CCCCN)NC(=O)[C@H](CCCCN)NC(=O)[C@H](Cc1c[nH]cn1)NC(=O)[C@H](CCCCN)NC(=O)[C@H](CCCCN)NC(=O)[C@@H](N)Cc1c[nH]cn1)C(N)=O` [(HKK)8] (H-HKKHKKHKKHKKHKKHKKHKKHKK-NH2) as the compound, how does the MIC [1] read?
Answer: The MIC was 2 µM (≈ 6.33 µg/mL).

Question: And the MIC [2]?
Answer: The MIC was 1 µM (≈ 3.16 µg/mL).

Question: And the MIC (C. albicans (KCTC 7270))?
Answer: The MIC was 8 µM (≈ 25.3 µg/mL).

Question: What about the MIC [3] of the same compound?
Answer: Its MIC is 8 µM (≈ 25.3 µg/mL).

Question: And the MIC [4]?
Answer: Its MIC is 8 µM (≈ 25.3 µg/mL).

Question: What about the MIC [5] of the same compound?
Answer: The MIC was 8 µM (≈ 25.3 µg/mL).

Question: And the MIC [6]?
Answer: Its MIC is 8 µM (≈ 25.3 µg/mL).

Question: And the MIC (C. krusei (CCARM 14017))?
Answer: The MIC was 4 µM (≈ 12.7 µg/mL).

Question: And the MIC [7]?
Answer: The MIC was 8 µM (≈ 25.3 µg/mL).

Question: What about the MIC [8] of the same compound?
Answer: The MIC was 4 µM (≈ 12.7 µg/mL).

Question: What about the MIC [9] of the same compound?
Answer: The MIC was 2 µM (≈ 6.33 µg/mL).

Question: And the MIC [10]?
Answer: Its MIC is 2 µM (≈ 6.33 µg/mL).

Question: What about the MIC (F. solani (KCTC 6326)) of the same compound?
Answer: The MIC was 1 µM (≈ 3.16 µg/mL).

Question: And the MIC [11]?
Answer: Its MIC is 2 µM (≈ 6.33 µg/mL).

Question: What about the MIC [12] of the same compound?
Answer: Its MIC is 4 µM (≈ 12.7 µg/mL).

Question: What about the MIC [13] of the same compound?
Answer: Its MIC is 1 µM (≈ 3.16 µg/mL).

Question: Which “intracellular ROS generation” value (C. albicans cells [14]) does the source give for `OO` [H2O2] here?
Answer: Its value is “high levels of ROS generation”.

Question: What does the source list for `CC[C@H](C)[C@H](NC(=O)CN)C(=O)NCC(=O)N[C@@H](C)C(=O)N[C@H](C(=O)N[C@@H](CC(C)C)C(=O)N[C@@H](CCCCN)C(=O)N[C@H](C(=O)N[C@@H](CC(C)C)C(=O)N[C@H](C(=O)N[C@H](C(=O)NCC(=O)N[C@@H](CC(C)C)C(=O)N1CCC[C@H]1C(=O)N[C@@H](C)C(=O)N[C@@H](CC(C)C)C(=O)N[C@H](C(=O)N[C@@H](CO)C(=O)N[C@@H](Cc1c[nH]c2ccccc12)C(=O)N[C@H](C(=O)N[C@@H](CCCCN)C(=O)N[C@@H](CCCNC(=N)N)C(=O)N[C@@H](CCCCN)C(=O)N[C@@H](CCCNC(=N)N)C(=O)N[C@@H](CCC(N)=O)C(=O)N[C@@H](CCC(N)=O)C(N)=O)[C@@H](C)CC)[C@@H](C)CC)[C@@H](C)O)[C@@H](C)O)C(C)C)C(C)C` [Melittin, melittin, reference compound]?
Answer: cell death (HaCaT cells): 100%; calcein leakage from mammalian artificial liposomes (in words) [15]: concentration-dependent calcein leakage; MIC [1]: 8 µM (≈ 22.8 µg/mL); MIC [2]: 16 µM (≈ 45.5 µg/mL); MIC (C. albicans (KCTC 7270)): 8 µM (≈ 22.8 µg/mL); MIC [3]: 8 µM (≈ 22.8 µg/mL); MIC [4]: 8 µM (≈ 22.8 µg/mL); MIC [5]: 8 µM (≈ 22.8 µg/mL); MIC [6]: 8 µM (≈ 22.8 µg/mL); MIC (C. krusei (CCARM 14017)): 8 µM (≈ 22.8 µg/mL); MIC [7]: 8 µM (≈ 22.8 µg/mL); MIC [8]: 8 µM (≈ 22.8 µg/mL); MIC [9]: 8 µM (≈ 22.8 µg/mL); MIC [10]: 8 µM (≈ 22.8 µg/mL); MIC (F. solani (KCTC 6326)): 8 µM (≈ 22.8 µg/mL); MIC [11]: 8 µM (≈ 22.8 µg/mL); MIC [12]: 32 µM (≈ 91.1 µg/mL); MIC [13]: 4 µM (≈ 11.4 µg/mL)

Question: With `OC(Cn1cncn1)(Cn1cncn1)c1ccc(F)cc1F` [fluconazole] as the compound, how does the “antifungal activity against drug-resistant C. albicans strains” value [16] read?
Answer: Its value is “inactive”.

Question: Which “SYTOX Green uptake (membrane permeabilization)” value (C. albicans cells [17]) does the source give for histatin 5 here?
Answer: Its value is “did not induce membrane damage”.

Question: And the “relative cytochrome c levels in the cytosol” value (C. albicans)?
Answer: Its value is “only minor alterations”.
